Data as given in US10035819B2, “PPAR agonists and methods of use thereof” (The Salk Institute for Biological Studies, priority 2014, dated 2018).

What follows are compounds tested against T1, PPARδ (Homo sapiens, UniProt Q03181) (assay: Nuclear Hormone Receptor (NHR) protein interaction assay (PathHunter), agonist format). Conditions: not given.
T1 construct: expressed in transfected cells; host or cells: PathHunter NHR cell lines
T1 sequence (Q03181 1-441): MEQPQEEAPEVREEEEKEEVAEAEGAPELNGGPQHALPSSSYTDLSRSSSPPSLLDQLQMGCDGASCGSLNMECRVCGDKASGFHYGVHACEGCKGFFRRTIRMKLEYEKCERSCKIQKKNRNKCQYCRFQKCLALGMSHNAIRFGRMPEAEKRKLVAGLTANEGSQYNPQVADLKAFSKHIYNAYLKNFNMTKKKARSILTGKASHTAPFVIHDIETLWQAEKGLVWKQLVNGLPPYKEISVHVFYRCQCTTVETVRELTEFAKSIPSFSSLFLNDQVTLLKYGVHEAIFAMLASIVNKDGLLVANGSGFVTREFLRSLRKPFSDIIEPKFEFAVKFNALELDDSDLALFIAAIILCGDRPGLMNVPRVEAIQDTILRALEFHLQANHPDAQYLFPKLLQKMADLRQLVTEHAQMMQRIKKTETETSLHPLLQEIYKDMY
Assay type: cell-based
Description: • Cell Handling: PathHunter NHR cell lines were expanded from freezer stocks according to standard procedures. Cells were seeded in a total volume of 20 μL into white walled, 384-well microplates and incubated at 37° C. for the appropriate time prior to testing. Assay media contained charcoal-dextran filtered serum to reduce the level of hormones present. • Agonist Format: For agonist determination, cells were incubated with sample to induce response. Intermediate dilution of sample stocks was performed to generate 5× sample in assay buffer. 5 μL of 5× sample was added to cells and incubated at 37° C. or room temperature for 3-16 hours. Final assay vehicle concentration was 1%. • Antagonist Format: For antagonist determination, cells were pre-incubated with antagonist followed by agonist challenge at the EC80 concentration. Intermediate dilution of sample stocks was performed to generate 5× sample in assay buffer. 5 μL of 5× sample was added to cells and incubated at 37° C. or room temperature for 60 minutes. Vehicle concentration was 1%. […] Microplates were read following signal generation with a PerkinElmer Envision™ instrument for chemiluminescent signal detection. • Data Analysis: Compound activity was analyzed using CBIS data analysis suite (ChemInnovation, CA). For agonist mode assays, percentage activity was calculated using the following formula: % Activity=100%×(mean RLU of test sample−mean RLU of vehicle control)/(mean MAX control ligand−mean RLU of vehicle control).
For antagonist mode assays, percentage inhibition was calculated using the following formula: % Inhibition=100%×(1−(mean RLU of test sample−mean RLU of vehicle control)/(mean RLU of EC80 control−mean RLU of vehicle control)). Note that for select assays, the ligand response produces a decrease in receptor activity (inverse agonist with a constitutively active target). For those assays inverse agonist activity was calculated using the following formula: % Inverse Agonist Activity=100%×((mean RLU of vehicle control−mean RLU of test sample)/(mean RLU of vehicle control−mean RLU of MAX control)).
CCC(C)N(Cc1ccccc1OCCCCCC(=O)O)C(=O)c1ccc(-c2ccco2)cc1 (centres unmarked) [compound 37] showed an EC50 of 17.5 nM.
CC(C)N(Cc1ccccc1OCCCCCC(=O)O)C(=O)c1ccc(-c2ccccc2)cc1 [compound 57] was tested, and the EC50 was 25.9 nM.
For CC(C)N(Cc1ccccc1OCCCCCC(=O)O)C(=O)c1ccc(-c2cccs2)cc1 [compound 63], the EC50 was 8.4 nM.

Same assay, conditions: PathHunter NHR cell line, agonist format; read-out: NHR protein interaction assay, EC50 (nM) for PPARδ
CC(C)N(Cc1ccccc1OCCCCCC(=O)O)C(=O)c1ccc(-c2ccco2)cc1 [compound 61] was tested, and the EC50 was 5.9 nM.

Each compound was assayed against T2, Human PPARδ LBD (Homo sapiens, UniProt Q03181) (assay: PPARδ activity screen (GAL4-PPARδ LBD luciferase transactivation in CV-1 cells)). Conditions: EC50 nM, Table 1; CV-1 cells, GAL4-PPARδ LBD luciferase reporter, compound 24 h.
T2 construct: (PPARδ amino acid 128 to C-terminus); expressed in transfected cells; host or cells: CV-1 cells
T2 sequence (Q03181 128-441 limits assumed): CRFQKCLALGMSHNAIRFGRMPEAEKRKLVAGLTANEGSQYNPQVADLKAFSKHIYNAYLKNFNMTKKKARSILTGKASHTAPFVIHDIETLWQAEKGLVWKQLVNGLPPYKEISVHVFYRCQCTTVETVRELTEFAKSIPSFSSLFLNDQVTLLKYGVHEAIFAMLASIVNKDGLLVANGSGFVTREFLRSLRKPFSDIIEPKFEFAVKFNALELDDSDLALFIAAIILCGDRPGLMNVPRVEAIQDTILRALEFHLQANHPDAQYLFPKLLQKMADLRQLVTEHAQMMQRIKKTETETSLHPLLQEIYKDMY
Assay type: cell-based
Description: Cell Culture and Transfection: CV-1 cells were grown in DMEM+10% charcoal stripped FCS. Cells were seeded into 384-well plates the day before transfection to give a confluency of 50-80% at transfection. A total of […] containing 0.64 micrograms pCMX-PPARDelta LBD, 0.1 micrograms pCMXβGal, 0.08 micrograms pGLMH2004 reporter and 0.02 micrograms pCMX empty vector was transfected per well using FuGene transfection reagent according to the manufacturer's instructions (Roche).
Plasmids: Human PPARδ was used to PCR amplify the PPARδ LBD. […] Ensuing fusions were verified by sequencing.
Compounds: All compounds were dissolved in DMSO and diluted 1:1000 upon addition to the cells. Compounds were tested in quadruple in concentrations ranging from 0.001 to 100 μM. […] Each compound was tested in at least two separate experiments.
Luciferase assay: Medium including test compound was aspirated and washed with PBS. 50 μl PBS including 1 mM Mg++ and Ca++ were then added to each well. The luciferase assay was performed using the LucLite kit according to the manufacturer's instructions (Packard Instruments). Light emission was quantified by counting on a Perkin Elmer Envision reader. […] Beta-galactosidase assays were performed in the microwell plates using a kit from Promega and read in a Perkin Elmer Envision reader. The beta-galactosidase data were used to normalize (transfection efficiency, cell growth etc.) the luciferase data.
Statistical Methods: The activity of a compound is calculated as fold induction compared to an untreated sample. […] EC50 values were calculated via non-linear regression using GraphPad PRISM (GraphPad Software, San Diego, Calif.).
CC(C)N(Cc1ccccc1OCCCCCC(=O)O)C(=O)c1ccc(-c2ccccc2)cc1 [compound 1] gave an EC50 of 42 nM.
For O=C(O)CCCCCOc1ccccc1CN(C(=O)c1ccc(-c2ccccc2)cc1)C1CC1 [compound 8], the EC50 was 115 nM.
Compound O=C(O)CCCCCOc1ccccc1CN(C(=O)c1ccc(-c2cccs2)cc1)C1CC1 [compound 14] has an EC50 of 1800 nM.
With CCC(C)N(Cc1ccccc1OCCCCCC(=O)O)C(=O)c1ccc(Br)cc1 (centres unmarked) [compound 32] the EC50 was 611 nM.
For CCC(C)N(Cc1ccccc1OCCCCCC(=O)O)C(=O)c1ccc(-c2ccccc2)cc1 (centres unmarked) [compound 33], the EC50 was 954 nM.
With CCC(C)N(Cc1ccccc1OCCCCCC(=O)O)C(=O)c1ccc(-c2cccnc2)cc1 (centres unmarked) [compound 34] the EC50 was 5140 nM.
Compound CCC(C)N(Cc1ccccc1OCCCCCC(=O)O)C(=O)c1ccc(-c2ccncc2)cc1 (centres unmarked) [compound 35] has an EC50 of 6400 nM.
With CCC(C)N(Cc1ccccc1OCCCCCC(=O)O)C(=O)c1ccc(-c2cn[nH]c2)cc1 (centres unmarked) [compound 36] the EC50 was 15400 nM.
Compound CCC(C)N(Cc1ccccc1OCCCCCC(=O)O)C(=O)c1ccc(-c2ccco2)cc1 (centres unmarked) [compound 37] has an EC50 of 41 nM.
CCC(C)N(Cc1ccccc1OCCCCCC(=O)O)C(=O)c1ccc(-c2ccoc2)cc1 (centres unmarked) [compound 38] was tested, and the EC50 was 290 nM.
In the case of CCC(C)N(Cc1ccccc1OCCCCCC(=O)O)C(=O)c1ccc(-c2cccs2)cc1 (centres unmarked) [compound 39], the EC50 is reported as 2100 nM.
CCC(C)N(Cc1ccccc1OCCCCCC(=O)O)C(=O)c1ccc(-c2ccsc2)cc1 (centres unmarked) [compound 40] showed an EC50 of 179 nM.
CC(C)N(Cc1ccccc1OCCCCCC(=O)O)C(=O)c1ccc(-c2ccccc2)cc1 [compound 57] showed an EC50 of 60 nM.
With CC(C)N(Cc1ccccc1OCCCCCC(=O)O)C(=O)c1ccc(-c2cccnc2)cc1 [compound 58] the EC50 was 1240 nM.
O=C(O)CCCCCOc1ccccc1CN(C(=O)c1ccc(-c2ccccc2)cc1)C1CCCC1 [compound 65] was tested, and the EC50 was 405 nM.
Cc1ccccc1-c1ccc(C(=O)N(Cc2ccccc2OCCCCCC(=O)O)C2CC2)cc1 [compound 75] was tested, and the EC50 was 1190 nM.
Work on Cc1cccc(-c2ccc(C(=O)N(Cc3ccccc3OCCCCCC(=O)O)C3CC3)cc2)c1 [compound 76] yielded an EC50 of 318 nM.
Cc1ccc(-c2ccc(C(=O)N(Cc3ccccc3OCCCCCC(=O)O)C3CC3)cc2)cc1 [compound 77] was tested, and the EC50 was 372 nM.
COc1ccccc1-c1ccc(C(=O)N(Cc2ccccc2OCCCCCC(=O)O)C2CC2)cc1 [compound 78] gave an EC50 of 1870 nM.
COc1cccc(-c2ccc(C(=O)N(Cc3ccccc3OCCCCCC(=O)O)C3CC3)cc2)c1 [compound 79] gave an EC50 of 301 nM.
Compound COc1ccc(-c2ccc(C(=O)N(Cc3ccccc3OCCCCCC(=O)O)C3CC3)cc2)cc1 [compound 80] has an EC50 of 439 nM.
O=C(O)CCCCCOc1ccccc1CN(C(=O)c1ccc(-c2ccccc2F)cc1)C1CC1 [compound 81] gave an EC50 of 597 nM.
O=C(O)CCCCCOc1ccccc1CN(C(=O)c1ccc(-c2cccc(F)c2)cc1)C1CC1 [compound 82] showed an EC50 of 150 nM.
O=C(O)CCCCCOc1ccccc1CN(C(=O)c1ccc(-c2ccc(F)cc2)cc1)C1CC1 [compound 83] gave an EC50 of 364 nM.
CCc1ccccc1-c1ccc(C(=O)N(Cc2ccccc2OCCCCCC(=O)O)C2CC2)cc1 [compound 84] showed an EC50 of 2500 nM.
Cc1cccc(-c2ccc(C(=O)N(Cc3ccccc3OCCCCCC(=O)O)C3CC3)cc2)c1C [compound 86] was tested, and the EC50 was 1300 nM.
In the case of Cc1ccc(C)c(-c2ccc(C(=O)N(Cc3ccccc3OCCCCCC(=O)O)C3CC3)cc2)c1 [compound 87], the EC50 is reported as 1150 nM.
In the case of Cc1cc(C)cc(-c2ccc(C(=O)N(Cc3ccccc3OCCCCCC(=O)O)C3CC3)cc2)c1 [compound 89], the EC50 is reported as 1760 nM.
With O=C(O)CCCCCOc1ccccc1CN(C(=O)c1ccc(-c2ccccc2C(F)(F)F)cc1)C1CC1 [compound 90] the EC50 was 1300 nM.
O=C(O)CCCCCOc1ccccc1CN(C(=O)c1ccc(-c2cccc(C(F)(F)F)c2)cc1)C1CC1 [compound 91] showed an EC50 of 1150 nM.
O=C(O)CCCCCOc1ccccc1CN(C(=O)c1ccc(-c2ccc(C(F)(F)F)cc2)cc1)C1CC1 [compound 92] showed an EC50 of 1760 nM.
Compound CCCc1ccc(-c2ccc(C(=O)N(Cc3ccccc3OCCCCCC(=O)O)C3CC3)cc2)cc1 [compound 93] has an EC50 of 1340 nM.

Same assay, conditions: PPARd, EC50 (nM) (from Salk), Table 15
Work on CCC(C)N(Cc1ccccc1OCCCCCC(=O)O)C(=O)c1ccc(-c2ccco2)cc1 (centres unmarked) [compound 37] yielded an EC50 of 41 nM.
Compound CC(C)N(Cc1ccccc1OCCCCCC(=O)O)C(=O)c1ccc(-c2ccccc2)cc1 [compound 57] has an EC50 of 42 nM.

Same assay, conditions: Table 1; CV-1 cells, GAL4-PPARδ LBD luciferase reporter, compound 24 h; read-out: EC50
Work on O=C(O)CCCCCOc1ccccc1CN(C(=O)c1ccc(-c2cccnc2)cc1)C1CC1 [compound 9] yielded an EC50 of 1960 nM.
O=C(O)CCCCCOc1ccccc1CN(C(=O)c1ccc(-c2cn[nH]c2)cc1)C1CC1 [compound 11] gave an EC50 of 2120 nM.
With O=C(O)CCCCCOc1ccccc1CN(C(=O)c1ccc(-c2ccoc2)cc1)C1CC1 [compound 13] the EC50 was 215 nM.
In the case of O=C(O)CCCCCOc1ccccc1CN(C(=O)c1ccc(-c2ccsc2)cc1)C1CC1 [compound 15], the EC50 is reported as 58.4 nM.
Work on CC(C)N(Cc1ccccc1OCCCCCC(=O)O)C(=O)c1ccc(-c2ccncc2)cc1 [compound 59] yielded an EC50 of 2860 nM.
CC(C)N(Cc1ccccc1OCCCCCC(=O)O)C(=O)c1ccc(-c2cn[nH]c2)cc1 [compound 60] was tested, and the EC50 was 710 nM.
With CC(C)N(Cc1ccccc1OCCCCCC(=O)O)C(=O)c1ccc(-c2ccco2)cc1 [compound 61] the EC50 was 9 nM.
Work on O=C(O)CCCCCOc1ccccc1CN(C(=O)c1ccc(-c2cccnc2)cc1)C1CCCC1 [compound 66] yielded an EC50 of 786 nM.
O=C(O)CCCCCOc1ccccc1CN(C(=O)c1ccc(-c2ccncc2)cc1)C1CCCC1 [compound 67] showed an EC50 of 1490 nM.
Work on O=C(O)CCCCCOc1ccccc1CN(C(=O)c1ccc(-c2cn[nH]c2)cc1)C1CCCC1 [compound 68] yielded an EC50 of 605 nM.
Compound O=C(O)CCCCCOc1ccccc1CN(C(=O)c1ccc(-c2ccco2)cc1)C1CCCC1 [compound 69] has an EC50 of 51.4 nM.
For O=C(O)CCCCCOc1ccccc1CN(C(=O)c1ccc(-c2ccoc2)cc1)C1CCCC1 [compound 70], the EC50 was 127 nM.
O=C(O)CCCCCOc1ccccc1CN(C(=O)c1ccc(-c2cccs2)cc1)C1CCCC1 [compound 71] was tested, and the EC50 was 753 nM.
For O=C(O)CCCCCOc1ccccc1CN(C(=O)c1ccc(-c2ccsc2)cc1)C1CCCC1 [compound 72], the EC50 was 29.3 nM.

Same assay, conditions: Table 15; read-out: PPARd, EC50 (nM) (from Salk)
CC(C)N(Cc1ccccc1OCCCCCC(=O)O)C(=O)c1ccc(-c2ccco2)cc1 [compound 61] was tested, and the EC50 was 9 nM.
